One assay concerns ADAM17. The experiment in a line: Western blot of ADAM17 in SweAPP N2a cells. In kind it is cell-based, murine. As to conditions: EGCG treatment; data not shown. How it is done:
Cultured cells were lysed in ice-cold lysis buffer described above, and an aliquot corresponding to 50 μg of total protein was electrophoretically separated using 16.5% Tris-tricine gels. Electrophoresed proteins were then transferred to PVDF membranes (Bio-Rad, Richmond, Calif.), washed in ddH2O, and blocked for 1 h at ambient temperature in Tris-buffered saline (TBS; Bio-Rad) containing 5% (w/v) non-fat dry milk. After blocking, membranes were hybridized for 1 h at ambient temperature with various primary antibodies. Membranes were then washed 3 times for 5 min each in ddH2O and incubated for 1 h at ambient temperature with the appropriate HRP-conjugated secondary antibody (1:1,000, Pierce Biotechnology, Inc. Rockford, Ill.). All antibodies were diluted in TBS containing 5% (w/v) of non-fat dry milk. Blots were developed using the luminol reagent (Pierce Biotechnology). Densitometric analysis was done using the Fluor-S MultiImager™ with Quantity One™ software (Bio-Rad). For examining sAPP-α, conditioned medium was collected following treatment according to a modified protocol from Chen and Fernandez (Chen et al., 2004). sAPP-α was extracted using 3K Nanosep centrifugal filters (Pall Life Sciences, Ann Arbor, Mich.) and protein concentrate was prepared for the aforementioned electrophoresis. […]
Background: A western blot detects proteins with antibodies after separation by electrophoresis.

The subject of the next assay is APP α-secretase cleavage. The experiment in a line: Western blot of APP CTFs and sAPP-α in SweAPP N2a cells (Examples 6-7, with or without siRNA knock-down). In kind it is cell-based, murine. To be noted: various doses of EGCG, 8 h. The source says:
FIGS. 8A-8H show EGCG-induced ADAM10 activation correlates with APP α-secretase cleavage in vitro. […] Data were represented as % change relative to control (medium from cultured SweAPP N2a cells or primary neuronal cells without any treatment).
FIGS. 10A-10C show ADAM10 is required for EGCG-induced APP α-secretase cleavage. […] In FIG. 10A, cell lysates were subjected to WB for APP CTFs and ADAM10 cleavage analyses. […] In FIG. 10B, cell culture media were subjected to WB for sAPP-α secretion. […] In FIG. 10C, cell culture media were subjected to Aβ ELISA. Data are represented as % change relative to control (medium from cultured SweAPP N2a cells without any treatment). […] Data are representative of three independent experiments.
Cultured cells were lysed in ice-cold lysis buffer described above, and an aliquot corresponding to 50 μg of total protein was electrophoretically separated using 16.5% Tris-tricine gels. […] Densitometric analysis was done using the Fluor-S MultiImager™ with Quantity One™ software (Bio-Rad). […]
SweAPP N2a cells were transfected with siRNA pre-designed to knock-down murine ADAM9, 10, or 17 mRNA (Dharmacon Inc. Lafayette, Colo.). […] Transfection efficiency was determined to be greater than 80% (data not shown) using no-RISC siGLOW (fluorescently labeled non-functional siRNA; Dharmacon). […] The cells were evaluated by Western blot analysis for expression of ADAM9, 10 or 17. […]

The next assay has as its system ADAM10. The experiment in a line: Western blot of ADAM10 maturation in primary murine neuronal cultures. Type of assay: cell-based. To be noted: various doses, 8 h.
For the next assay, the system named is Aβ generation. The experiment in a line: Aβ ELISA, conditioned media of APP-transfected N2a cells (Example 1). Type of assay: cell-based, murine. On the procedure:
Aβ1-40 and 1-42 peptides were analyzed in the conditioned media from SweAPP N2a cells (FIGS. 1A, 1C, 1D) and transgenic APPsw mouse-derived primary neuronal cells (FIG. 1B) by ELISA (n=3 for each condition).
TAPI-1, β and γ-secretase inhibitors were obtained from Calbiochem (San Diego, Calif.). Green tea extract (75% polyphenols) was obtained from the Vitamin Shoppe™ (North Bergen, N.J.).
Cultured cells were lysed in ice-cold-lysis buffer (20 mM Tris, pH 7.5, 150 mM NaCl, 1 mM EDTA, 1 mM EGTA, 1% v/v Triton X-100, 2.5 mM sodium pyropgosphate, 1 mM β-glycerolphosphate, 1 mM Na3VO4, 1 μg/mL leupeptin, 1 mM PMSF) as previously described (Tan et al., 2002). Mouse brains were isolated under sterile conditions on ice and placed in ice-cold lysis buffer. Brains were then sonicated on ice for approximately 3 min, allowed to stand for 15 min at 4° C., and centrifuged at 15,000 rpm for 15 min. Total Aβ1-42 species were detected by acid extraction of brain homogenates in 5 M guanidine buffer (ret), followed by a 1:10 dilution in lysis buffer. Soluble Aβ1-42 was directly detected in cultured cell lysates or brain homogenates prepared with lysis buffer described above by a 1:4 or 1:10 dilution, respectively. Aβ1-42 was quantified in these samples using the Aβ1-42 ELISA kit (BioSource, Camarillo, Calif.) in accordance with the manufacturer's instructions, except that standards included a 0.5 M guanidine buffer.
In order to examine the effects of green tea's components on APP cleavage processing, for a first step, N2a neuroblastoma cells overproducing Aβ were treated with each of the aforementioned components at a wide range of doses. In addition, doses of (+)-catechin hydrate (CH) and gallic acid monohydrate (GAM) were included in the first step.
For orientation: ELISA stands for enzyme-linked immunosorbent assay.

Protocol for ADAM10: Cultured cells were lysed in ice-cold lysis buffer described above, and an aliquot corresponding to 50 μg of total protein was electrophoretically separated using 16.5% Tris-tricine gels. Electrophoresed proteins were then transferred to PVDF membranes (Bio-Rad, Richmond, Calif.), washed in ddH2O, and blocked for 1 h at ambient temperature in Tris-buffered saline (TBS; Bio-Rad) containing 5% (w/v) non-fat dry milk. After blocking, membranes were hybridized for 1 h at ambient temperature with various primary antibodies. Membranes were then washed 3 times for 5 min each in ddH2O and incubated for 1 h at ambient temperature with the appropriate HRP-conjugated secondary antibody (1:1,000, Pierce Biotechnology, Inc. Rockford, Ill.). All antibodies were diluted in TBS containing 5% (w/v) of non-fat dry milk. Blots were developed using the luminol reagent (Pierce Biotechnology). Densitometric analysis was done using the Fluor-S MultiImager™ with Quantity One™ software (Bio-Rad). […] Antibodies used for Western blot included: antibody 369 (which recognizes the carboxyl-terminus of APP; 1:1,500), clone 22C11 (against the amino-terminus of APP; 1:1,500), clone 6E10 (against amino acids 1-17 of Aβ; 1:1,500), anti-ADAM9 (1:500), and antibodies against ADAM10 (1:500), ADAM17 (1:500) or actin (1:1,500; as an internal reference control). […]

As to `O=C(O[C@@H]1Cc2c(O)cc(O)cc2O[C@@H]1c1cc(O)c(O)c(O)c1)c1cc(O)c(O)c(O)c1` [EGCG, (−)-epigallocatechin-3-gallate], the ADAM17 expression result in the assay on ADAM17 is given as “no significant effects”. Moreover, in the assay on APP α-secretase cleavage, the sAPP-α result is “dose-dependent increases” and the α-CTF entry is on record as “dose-dependent increases”. The “mature ADAM10” value in the assay on ADAM10 is recorded as “dose-dependent increases”. The “reduction of Aβ1-42 generation over control (PBS)” value in the assay with Aβ generation (20 μM, human APP695-transfected N2a cells, FIG. 1A) is given as 60%. Also, in the assay on Aβ generation (SweAPP N2a cells, equivalent doses, FIG. 1D), the “ability to inhibit Aβ generation, purified EGCG versus same amounts EGCG present in GT mixtures” value is “much greater”.

The values are drawn from US20130261045A1, “GREEN TEA POLYPHENOL ALPHA SECRETASE ENHANCERS AND METHODS OF USE” (UNIVERSITY OF SOUTH FLORIDA, priority 2005, published 2013).
